± gives the expanded uncertainty stated by the source.
Assay: xn = mol fraction of the nth substance listed
Settings: 101 kPa, Liquid, Vibrating tube method

C=C[Si](C)(C)O[Si](C)(C)C=C [1,3-diethenyl-1,1,3,3-tetramethyldisiloxane] + COc1ccccc1
mass density [kg/m3]
Settings	283.15 K	288.15 K	293.15 K	298.15 K	303.15 K
x1 = 0.0501	987.07 ± 1	982.37 ± 1	977.74 ± 1	973.02 ± 1	968.3 ± 1
x1 = 0.1	972.12 ± 1	967.42 ± 1	962.75 ± 1	958.01 ± 1	953.27 ± 1
x1 = 0.15	958.3 ± 1	953.58 ± 1	948.89 ± 1	944.14 ± 1	939.38 ± 1
x1 = 0.2004	945.4 ± 1	940.66 ± 1	935.96 ± 1	931.19 ± 1	926.42 ± 1
x1 = 0.2499	933.62 ± 1	928.87 ± 1	924.15 ± 1	919.36 ± 1	914.57 ± 1
x1 = 0.3	922.54 ± 1	917.77 ± 1	913.04 ± 1	908.24 ± 1	903.45 ± 1
x1 = 0.35	912.24 ± 1	907.47 ± 1	902.73 ± 1	897.91 ± 1	893.1 ± 1
x1 = 0.3997	902.67 ± 1	897.88 ± 1	893.12 ± 1	888.29 ± 1	883.45 ± 1
x1 = 0.4499	893.63 ± 1	888.81 ± 1	884.04 ± 1	879.2 ± 1	874.35 ± 1
x1 = 0.5001	885.14 ± 1	880.31 ± 1	875.53 ± 1	870.68 ± 1	865.82 ± 1
x1 = 0.5499	877.24 ± 1	872.4 ± 1	867.62 ± 1	862.75 ± 1	857.88 ± 1
x1 = 0.6	869.73 ± 1	864.89 ± 1	860.09 ± 1	855.21 ± 1	850.33 ± 1
x1 = 0.6499	862.68 ± 1	857.84 ± 1	853.04 ± 1	848.15 ± 1	843.25 ± 1
x1 = 0.6999	856.02 ± 1	851.16 ± 1	846.35 ± 1	841.46 ± 1	836.55 ± 1
x1 = 0.7499	849.72 ± 1	844.85 ± 1	840.03 ± 1	835.13 ± 1	830.23 ± 1
x1 = 0.8	843.72 ± 1	838.85 ± 1	834.02 ± 1	829.11 ± 1	824.19 ± 1
x1 = 0.8499	838.07 ± 1	833.19 ± 1	828.35 ± 1	823.44 ± 1	818.52 ± 1
x1 = 0.8998	832.69 ± 1	827.81 ± 1	822.98 ± 1	818.06 ± 1	813.14 ± 1
x1 = 0.9499	827.56 ± 1	822.67 ± 1	817.83 ± 1	812.91 ± 1	808 ± 1
x1 = 1	822.67 ± 1	817.77 ± 1	812.92 ± 1	808 ± 1	803.07 ± 1

C=C[Si](C)(C)O[Si](C)(C)C=C [1,3-diethenyl-1,1,3,3-tetramethyldisiloxane] + Fc1ccccc1
mass density [kg/m3]
Settings	283.15 K	288.15 K	293.15 K	298.15 K	303.15 K
x1 = 0.05	1013.6 ± 1	1007.66 ± 1	1001.73 ± 1	995.86 ± 1	989.74 ± 1
x1 = 0.1	992.96 ± 1	987.08 ± 1	981.21 ± 1	975.37 ± 1	969.31 ± 1
x1 = 0.15	974.59 ± 1	968.74 ± 1	962.94 ± 1	957.17 ± 1	951.1 ± 1
x1 = 0.1993	958.3 ± 1	952.51 ± 1	946.77 ± 1	941.03 ± 1	934.98 ± 1
x1 = 0.25	943.25 ± 1	937.46 ± 1	931.8 ± 1	926.13 ± 1	920.12 ± 1
x1 = 0.2999	929.85 ± 1	924.19 ± 1	918.57 ± 1	913 ± 1	907.17 ± 1
x1 = 0.35	917.58 ± 1	911.93 ± 1	906.37 ± 1	900.84 ± 1	895 ± 1
x1 = 0.4	906.43 ± 1	900.85 ± 1	895.33 ± 1	889.86 ± 1	884.09 ± 1
x1 = 0.45	896.19 ± 1	890.66 ± 1	885.22 ± 1	879.75 ± 1	874.12 ± 1
x1 = 0.5	886.76 ± 1	881.29 ± 1	875.91 ± 1	870.51 ± 1	864.97 ± 1
x1 = 0.5501	878.08 ± 1	872.69 ± 1	867.38 ± 1	862.04 ± 1	856.56 ± 1
x1 = 0.6	870.07 ± 1	864.73 ± 1	859.45 ± 1	854.19 ± 1	848.77 ± 1
x1 = 0.6501	862.6 ± 1	857.33 ± 1	852.11 ± 1	846.89 ± 1	841.53 ± 1
x1 = 0.7	855.69 ± 1	850.46 ± 1	845.29 ± 1	840.15 ± 1	834.87 ± 1
x1 = 0.7501	849.23 ± 1	844.06 ± 1	838.93 ± 1	833.84 ± 1	828.63 ± 1
x1 = 0.8	843.23 ± 1	838.1 ± 1	833.02 ± 1	827.99 ± 1	822.84 ± 1
x1 = 0.85	837.56 ± 1	832.51 ± 1	827.46 ± 1	822.49 ± 1	817.39 ± 1
x1 = 0.8998	832.28 ± 1	827.28 ± 1	822.3 ± 1	817.36 ± 1	812.32 ± 1
x1 = 0.95	827.28 ± 1	822.33 ± 1	817.38 ± 1	812.49 ± 1	807.52 ± 1
x1 = 1	822.56 ± 1	817.66 ± 1	812.74 ± 1	807.9 ± 1	802.97 ± 1

C=C[Si](C)(C)O[Si](C)(C)C=C [1,3-diethenyl-1,1,3,3-tetramethyldisiloxane] + O=[N+]([O-])c1ccccc1
mass density [kg/m3]
Settings	283.15 K	288.15 K	293.15 K	298.15 K	303.15 K
x1 = 0.05	1176.35 ± 1	1171.43 ± 1	1166.52 ± 1	1161.69 ± 1	1156.82 ± 1
x1 = 0.1	1142.71 ± 1	1137.83 ± 1	1132.97 ± 1	1128.22 ± 1	1123.45 ± 1
x1 = 0.15	1111.83 ± 1	1106.98 ± 1	1102.13 ± 1	1097.43 ± 1	1092.67 ± 1
x1 = 0.2	1083.35 ± 1	1078.52 ± 1	1073.67 ± 1	1068.96 ± 1	1064.2 ± 1
x1 = 0.25	1057.23 ± 1	1052.41 ± 1	1047.57 ± 1	1042.87 ± 1	1038.12 ± 1
x1 = 0.3	1033.06 ± 1	1028.23 ± 1	1023.4 ± 1	1018.69 ± 1	1013.92 ± 1
x1 = 0.3508	1010.38 ± 1	1005.54 ± 1	1000.74 ± 1	996.01 ± 1	991.23 ± 1
x1 = 0.4001	989.98 ± 1	985.14 ± 1	980.32 ± 1	975.57 ± 1	970.77 ± 1
x1 = 0.4501	970.75 ± 1	965.91 ± 1	961.08 ± 1	956.32 ± 1	951.52 ± 1
x1 = 0.4999	952.93 ± 1	948.07 ± 1	943.22 ± 1	938.45 ± 1	933.61 ± 1
x1 = 0.55	936.17 ± 1	931.3 ± 1	926.44 ± 1	921.66 ± 1	916.81 ± 1
x1 = 0.6001	920.46 ± 1	915.57 ± 1	910.7 ± 1	905.91 ± 1	901.03 ± 1
x1 = 0.6487	906.15 ± 1	901.26 ± 1	896.39 ± 1	891.58 ± 1	886.71 ± 1
x1 = 0.6999	891.87 ± 1	887 ± 1	882.12 ± 1	877.3 ± 1	872.42 ± 1
x1 = 0.7499	878.8 ± 1	873.92 ± 1	869.03 ± 1	864.21 ± 1	859.31 ± 1
x1 = 0.7999	866.41 ± 1	861.51 ± 1	856.6 ± 1	851.77 ± 1	846.84 ± 1
x1 = 0.8497	854.66 ± 1	849.77 ± 1	844.87 ± 1	840.06 ± 1	835.12 ± 1
x1 = 0.9	843.43 ± 1	838.53 ± 1	833.62 ± 1	828.8 ± 1	823.86 ± 1
x1 = 0.9499	832.79 ± 1	827.88 ± 1	822.98 ± 1	818.14 ± 1	813.2 ± 1
x1 = 1	822.64 ± 1	817.73 ± 1	812.82 ± 1	807.98 ± 1	803.03 ± 1

Source: the NIST ThermoML archive (doi:10.1016/j.jct.2013.12.025)
